According to patent US20240277642A1, “POLYMERIZED VALPROIC ACID AND USE THEREOF” (UNIVERSITY OF TSUKUBA, priority 2021, published 2024):

Assay: toxicity evaluation by changes in body weight
Format: in vivo, mice
Conditions: intraperitoneal, 500 mg/kg for 5 days; FIG. 6
Experimental: To evaluate the toxicity of VPA and Nano^VPA, VPA and Nano^VPA were intraperitoneally administered at a dose of 500 mg/kg for 5 days, and changes in body weight of the mice were observed.

SMILES: CCCC(CCC)C(=O)O [VPA, valproic acid]
- changes in body weight: a decrease in body weight
